{
  "source": "patent US20060083711A1",
  "about": "“Methods and products related to the intracellular delivery of polysaccharides” (Massachusetts Institute of Technology, priority 2004, published 2006)",
  "key": {"Daudi cells": {"tested_on": "Daudi cells", "assay": "Whole cell proliferation assay", "format": "cell-based, human", "conditions": "for direct effect of kinase inhibitor on Daudi whole cell number: FBS-deficient media, 50 μM LY294002, 20 μM PD98059, or 1 μM SB203580", "protocol": "For proliferation assays using Daudi cells, cells were collected from 75 cm^2 flasks, washed three times with FBS-deficient media or proliferation media, and resuspended into 10 ml of the same media. Cells were diluted to 1×10^5 cells/ml based on the reading of an electronic cell counter, and plated 1 ml/well in 24-well plates. Wells were treated with PBS, heparin, A5, or A5-heparin conjugate in 10 μl volumes, and incubated for 72 hours at 37° C., 5% CO2. A5-heparin conjugates were additionally supplemented with 50 μM LY294002, 20 μM PD98059, or 1 μM SB203580, 50 mM sodium chlorate, or 10 ng/ml FGF2, as appropriate. Whole cell number was converted to a percent growth relative to PBS treatment. Proliferation assays on NFS-1.0 C-1 and J.CaM1.6 cells were performed as described for Daudi cells.\nTo probe the role of sulfation patterns and fine structure in inducing the effects of A5-heparin conjugates, heparin was partially digested with heparinases prior to conjugation. Heparin was diluted to 20 μg/ml in PBS and incubated with 5 mU/ml hepI or hepIII or an equivalent volume of PBS for 30 minutes. Digestion was confirmed by UV spectroscopy at 232 nm. Digested heparin was subsequently conjugated with A5 as described. A5 binding to the heparin fragments was confirmed using an Azure A competition assay as previously described. Daudi cells, plated as described at 1×10^5 cells/ml in 24-well plates, 1 ml/well, were treated with conjugates at a heparin concentration of 1 μg/ml or an equivalent volume of PBS. After incubating for 72 hours at 37° C., 5% CO2, the resultant whole cell count was determined by electronic cell counter, and data were converted to a percent growth relative to Daudi treated with PBS alone.\nTo examine the effects of protamine sulfate and heparinases on Daudi growth, cells were collected from 75 cm^2 flasks, pelletted, and resuspended into 10 ml of propagation media. Cells were diluted to 1×10^5 cells/ml based on the reading of an electronic cell counter, and plated 1 ml/well in 24-well plates. Protamine sulfate was added between 1 and 100,000 ng/ml. HepI and hepIII were added between 0.5 and 500 μU/ml for 24, 48, or 72 hours. Whole cell counts from heparinase assays were converted to percent reduction in whole cell number relative to untreated."}, "PC-3 cells": {"tested_on": "PC-3 cells", "assay": "PC-3 proliferation assay (whole cell number)", "format": "cell-based, human", "conditions": "for effect of kinase inhibitor on heparin-mediated growth inhibition: 50 μM LY294002, 20 μM PD98059, 20 μM U0126, 1 μM SB203580, heparin 500 ng/ml", "protocol": "PC-3 cells were grown until confluence in 75 cm^2 flasks. Each flask was washed with 20 ml PBS, and treated with 3 ml trypsin-EDTA at 37° C. for 3-5 minutes, until cells detached. Cells were centrifuged for 3 min at 195×g. The supernatant was aspirated, and the cells were resuspended in 10 ml media. The cell density was measured using an electronic cell counter, and the suspension was diluted to 50,000 cells/ml. The suspension was plated 1 ml/well into 24-well tissue culture plates. After a 24 hour incubation in a 5% CO2, 37° C. humidified incubator, the media was aspirated, the wells were washed with serum free media, and the cells were supplemented with media containing 0.1% FBS and incubated for 24 hours. Cells were sequentially treated with antibodies, kinase inhibitors, heparin, and FGF2. Antibodies to FGF2, FGFR1, or FGFR3 were added to yield a final dilution of 1:100. Kinase inhibitors were added sufficient to yield final concentrations of 50 μM LY294002, 20 μM PD98059, 1 μM SB203580, and 20 μM U0126. Heparin was added at 500 ng/ml unless otherwise noted. To produce heparin digests, heparin was treated with PBS, hepI, or hepIII for 30 minutes, and boiled for 30 minutes. prior to addition to cells. Digestion was verified by UV spectroscopy at 232 nm. FGF2 was added at 100 ng/ml unless otherwise specified. Cells were then incubated for 72 hours. Wells were then washed twice with PBS and treated with 0.5 ml trypsin-EDTA/well and incubated for 10 minutes at 37° C. Whole cell number was determined using an electronic cell counter. Data were averaged over three experiments, each consisting of four wells per condition.\nPC-3 cells were grown until confluence in 75 cm^2 flasks. Each flask was washed with 20 ml PBS, and treated with 3 ml trypsin-EDTA at 37° C. for 3-5 minutes, until cells detached. Cells were centrifuged for 3 minutes at 195×g, the supernatant was aspirated, and the cells were resuspended in 10 ml media. The cell suspension was diluted to 50,000 cells/ml based on the readings of an electronic cell counter. The suspension was plated 1 ml/well into 24-well tissue culture plates. After a 24 hour incubation in a 5% CO2, 37° C. humidified incubator, the cells were washed with serum free media, supplemented with media containing 0.1% FBS, and incubated for 24 hours. Cells were treated with heparin, HS or FGF2 as appropriate. Heparin was added at 500 ng/ml unless otherwise noted. FGF2 was added at 100 ng/ml unless otherwise specified. Cells were then incubated for 72 hours. Wells were then washed twice with PBS and treated with 0.5 ml trypsin-EDTA/well and incubated for 10 minutes at 37° C. Whole cell number was determined using an electronic cell counter. Data were averaged over three experiments, each consisting of four wells per condition.\nFor antibody and kinase inhibitor experiments, antibodies and kinase inhibitors were added prior to HSGAGs or FGF2. […]\nTo produce heparin digests, heparin was treated with PBS, heparinase I (hepI), or hepIII for 30 minutes, and boiled for 30 prior to addition to cells. Digestion was verified and quantified by UV spectroscopy at 232 nm (27). […]\nA preliminary screen was performed on PC-3 cells by proliferation assay using the nine polymers described at polymer:heparin (w/w) ratios of 10:1, 20:1, 30:1, 40:1, and 60:1. The three best formulations (polymer and ratio) were selected and analyzed further. […] In vitro assessment of polymer activity was measured by proliferation assay with a heparin concentration of 1 μg/ml. […]"}, "[1]": {"tested_on": "phospho-Erk1/2 in PC-3 cells", "assay": "Whole cell ELISA", "format": "cell-based, human", "conditions": "10 ng/ml FGF2; 5, 15, or 60 minutes", "protocol": "(§1) ELISA was performed on whole cells to determine a quantifiable relative level of kinase activity. PC-3 cells were grown until confluence in 75 cm^2 flasks. Each flask was washed with 20 ml PBS, and treated with 3 ml trypsin-EDTA at 37° C. for 3-5 minutes, until cells detached. Cells were centrifuged for 3 min at 195×g. The supernatant was aspirated, and the cells were resuspended in 10 ml media. The cell density was measured using an electronic cell counter, and the suspension was diluted to 50,000 cells/ml. 100 mm dishes were supplemented with 10 ml cell suspension per dish. After a 24 hour incubation the media was aspirated, the dishes washed with serum free media, and the cells supplemented with media containing 0.1% FBS and incubated for 24 hours. Dishes were treated with PBS, 10 ng/ml FGF2, or 500 ng/ml heparin for 5, 15, or 60 minutes. Media was then aspirated, the cells were washed with 10 ml PBS, and each dish was treated with 5 ml Trizol reagent. Cell extract was added to 96-well plates previously incubated for 1 hour with primary antibodies to Erk1, Erk2 or phospho-Erk1/2. […] The reaction was quenched with 1 M HCl, and the plates were analyzed using a UV plate reader at 450 nm. Data were quantified by comparing to a standardized curve with varying concentrations of untreated cells."}, "Erk1, Erk2 in PC-3 cells": {"tested_on": "Erk1, Erk2 in PC-3 cells", "assay": "Whole cell ELISA", "format": "cell-based, human", "conditions": "10 ng/ml FGF2 or 500 ng/ml heparin; 5, 15, or 60 minutes", "protocol": "as §1"}, "B16-F10 cells": {"tested_on": "B16-F10 cells", "assay": "Whole cell proliferation assay", "format": "cell-based, mouse", "conditions": "10 ng/ml FGF2", "protocol": "Adhesion cells (B16-F10, B16-BL6, SMCs, BAECs, NIH 3T3, SK-ES-1, Panc-1, and SW-1088) were seeded in 24-well plates at 1 ml/well as well as in 6-well plates at 3 ml/well, both at a density of 5×10^4 cells/ml. The plates were incubated for 24 hours at 37° C., 5% CO2. The cells were then washed with PBS and supplemented with media as appropriate. Cells were treated with PBS, heparin, polymer, or polymer-heparin conjugate, in 10 μl quantities at appropriate concentrations. Cells were incubated at 37° C., 5% CO2 for 72 hours, after which, each well was treated with 500 μl (24 well plates) or 1 ml (6 well plates) trypsin-EDTA for 5-15 minutes at room temperature, after which 400 μl was used to count the cell number with an electronic cell counter. […] Panc-1 cells were only tested in 10% FBS. Effects of conjugate were normalized to co-treatment without conjugate.\nB16-F10 cells were grown until confluent, washed with PBS, treated with 3 ml trypsin-EDTA per 75 cm^2 tissue culture flask at 37° C. for 3-5 min, pelleted, and resuspended in FBS-deficient media. Cell concentration was determined with an electronic cell counter. […] Cells were treated with PBS, heparin, A5, or A5-heparin conjugate, added in 10 μl quantities, to yield a polymer concentration of 20 μg/ml and a heparin concentration of 1 μg/ml. […]"}, "[2]": {"molecular_target": "FGFR1c on PC-3 cells (human) (UniProt P11362)", "sequence (P11362 22-822)": "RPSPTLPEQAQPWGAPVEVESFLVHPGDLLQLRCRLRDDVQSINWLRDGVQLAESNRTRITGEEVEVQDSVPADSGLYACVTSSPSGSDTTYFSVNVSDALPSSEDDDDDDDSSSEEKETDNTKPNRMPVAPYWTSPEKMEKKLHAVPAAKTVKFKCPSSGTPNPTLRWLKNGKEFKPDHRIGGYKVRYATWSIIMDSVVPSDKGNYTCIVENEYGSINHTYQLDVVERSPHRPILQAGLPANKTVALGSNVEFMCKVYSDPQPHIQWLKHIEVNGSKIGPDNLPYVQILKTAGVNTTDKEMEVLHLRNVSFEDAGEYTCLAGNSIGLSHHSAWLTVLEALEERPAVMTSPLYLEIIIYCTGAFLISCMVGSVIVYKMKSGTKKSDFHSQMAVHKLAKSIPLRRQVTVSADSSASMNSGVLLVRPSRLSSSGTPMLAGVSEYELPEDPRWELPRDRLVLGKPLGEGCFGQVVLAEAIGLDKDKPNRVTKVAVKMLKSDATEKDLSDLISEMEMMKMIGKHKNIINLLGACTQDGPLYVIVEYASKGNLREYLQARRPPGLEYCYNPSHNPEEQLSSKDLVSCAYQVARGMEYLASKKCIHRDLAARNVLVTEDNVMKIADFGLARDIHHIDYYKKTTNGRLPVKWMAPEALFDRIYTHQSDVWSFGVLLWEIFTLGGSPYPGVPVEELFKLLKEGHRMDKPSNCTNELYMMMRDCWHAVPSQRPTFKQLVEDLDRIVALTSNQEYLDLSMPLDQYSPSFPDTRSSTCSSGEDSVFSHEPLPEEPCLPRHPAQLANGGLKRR", "assay": "cell-based or functional assay"}},
  "note": "Values joined by “and” are separate entries in the source; they are usually repeats but may differ in a detail not shown here. Equal entries are not always repeated. “Also recorded” adds a separate entry of the source.",
  "data": [
    {"compound": "COc1cccc(-c2cc(=O)c3ccccc3o2)c1N", "note": "[PD98059]", "values": [
      {"measurement": "direct effect of kinase inhibitor on Daudi whole cell number", "setting": "Daudi cells", "result": "neither inhibition of PI3K with LY294002 (p>0.39) nor inhibition of Erk and Mek with PD98059 (p>0.64) had a direct effect"},
      {"measurement": "effect of kinase inhibitor on heparin-mediated growth inhibition", "setting": "PC-3 cells", "result": "eliminate the ability of heparin to inhibit PC-3 growth; also recorded: prevented heparin-mediated growth inhibition"}
    ]},
    {"compound": "C[S+]([O-])c1ccc(-c2nc(-c3ccncc3)c(-c3ccc(F)cc3)[nH]2)cc1", "note": "(stereo not drawn) [SB203580]", "values": [
      {"measurement": "direct effect of kinase inhibitor on Daudi whole cell number", "setting": "Daudi cells", "result": "caused a significant reduction"},
      {"measurement": "effect of kinase inhibitor on heparin-mediated growth inhibition", "setting": "PC-3 cells", "result": "did not eliminate the effect of heparin; also recorded: had no effect"}
    ]},
    {"compound": "N#CC(=C(/N)Sc1ccccc1N)/C(C#N)=C(/N)Sc1ccccc1N", "note": "[U0126]", "values": [
      {"measurement": "effect of kinase inhibitor on heparin-mediated growth inhibition", "setting": "PC-3 cells", "result": "eliminate the ability of heparin to inhibit PC-3 growth; also recorded: prevented heparin-mediated growth inhibition"}
    ]},
    {"compound": "FGF2: Recombinant human FGF2", "values": [
      {"measurement": "upregulation of phospho-Erk1/2", "setting": "[1]", "result": "2-3 fold"},
      {"measurement": "Erk1 or Erk2 levels", "setting": "Erk1, Erk2 in PC-3 cells", "result": "no significant effect"},
      {"measurement": "effect on Daudi proliferation", "setting": "Daudi cells; 10 ng/ml FGF2", "result": "did not affect Daudi proliferation"},
      {"measurement": "inhibition of cell number by FGF2 alone", "setting": "B16-F10 cells", "result": "26.28±7.23", "unit": "%"},
      {"measurement": "increase in proliferation (whole cell number)", "setting": "PC-3 cells; 100 ng/ml FGF2", "result": "~15% and 15.6±3.1%"},
      {"measurement": "proliferation", "setting": "PC-3 cells; FGF2 doses of 50 ng/ml and lower", "result": "did not promote significant proliferation"}
    ]},
    {"compound": "Recombinant human FGF2 (from UniProt P09038 135-288) (ligand)", "values": [
      {"measurement": "increase in proliferation of PC-3 cells at 100 ng/ml FGF2", "setting": "[2]", "result": 15, "unit": "%"},
      {"measurement": "upregulation of phospho-Erk1/2 in PC-3 cells (whole cell ELISA)", "setting": "[2]", "result": "2 to 3", "unit": "fold"}
    ]},
    {"compound": "protamine sulfate", "values": [
      {"measurement": "reduction in whole cell number", "setting": "Daudi cells; protamine sulfate 1×10^5 ng/ml, media with 10% FBS, three days", "result": "12.9±2.8", "unit": "%"},
      {"measurement": "effect on whole cell number", "setting": "Daudi cells; protamine sulfate concentrations less than 1×10^5 ng/ml, 10% FBS", "result": "no effect"}
    ]}
  ]
}
